{"source": "patent US20230284994A1", "about": "“PET-CT IMAGING METHODS, CONTRAST AGENTS AND PHARMACEUTICAL COMPOSITIONS FOR USE IN SAID IMAGING METHODS” (ADIPOSS SÁRL, priority 2020, published 2023)", "key": {"[1]": {"system": "tumour metastases", "experiment": "18FDG PET-CT scan for metastases in syngeneic B16F10 melanoma mouse model, necropsy as standard of truth", "type": "in vivo, C57B1/6 mice", "details": "six mice, 24 metastases by necropsy; scan without (18FDG only) or with oral PET-CT contrast agent", "experimental": "Syngeneic mouse melanoma model (with tumor metastases dissemination to the lungs) was induced by intravenous injection of B16F10 murine melanoma cancer cells in C57B1/6 mice. 19 days after cells injection, the animals were administered with ^18FDG and a PET-CT scan was performed on each animal. One day later, the PET-CT contrast agent was administered via oral route to the same animals. Then, a second ^18FDG PET-CT scan was performed. The animals were then euthanized and necropsy was performed on each animal. Assessment of the PET-CT scans for co-localization of positive contrast enhancement of ^18FDG and PET-CT contrast agent allowed discriminating metastases from brown adipose tissue (FIGS. 2a and 3a). The ^18FDG signals present in BAT, that could be interpreted as false positives (metastases), were correctly attributed to BAT, improving the specificity and positive predictive value of the PET-CT scan for tumour metastases. This was confirmed by necropsy (FIGS. 2b, c and 3b, c). In total, based on necropsy (standard of truth), the six mice presented 24 metastases (four per mouse on average). […] Without the PET-CT contrast agent, the positive predictive value PPV of the ^18FDG PET-CT scan for metastases was 85% (FIG. 4). By using the PET-CT contrast agent, the PPV was 100%. The CT contrast agent thus improves the PPV of the ^18FDG PET-CT scan by 15%."}, "[2]": {"system": "brown adipose tissue", "experiment": "18FDG PET-CT scan for brown adipose tissue in syngeneic B16F10 melanoma mouse model, confirmed by necropsy", "type": "in vivo, C57B1/6 mice", "details": "12 scans (six with, six without contrast agent); based on 18FDG uptake or on uptake of PET-CT contrast agent", "experimental": "Syngeneic mouse melanoma model (with tumor metastases dissemination to the lungs) was induced by intravenous injection of B16F10 murine melanoma cancer cells in C57B1/6 mice. 19 days after cells injection, the animals were administered with ^18FDG and a PET-CT scan was performed on each animal. One day later, the PET-CT contrast agent was administered via oral route to the same animals. Then, a second ^18FDG PET-CT scan was performed. In total, 12 ^18FDG PET-CT scans were performed (six with and six without the PET-CT contrast agent). The animals were then euthanized and necropsy was performed. Assessment of the PET-CT scans for absence of ^18FDG uptake but presence of contrast enhancement due to the PET-CT contrast agent allowed easy and robust detection of brown adipose tissue, increasing the sensitivity and positive predictive value of the PET-CT scan or BAT. In total, ^18FDG uptake in BAT was present in nine out of 12 PET-CT scans. However, all mice had BAT. Based on ^18FDG uptake, the sensitivity of the PET-CT scan for BAT was 75% (FIG. 5). Based on the uptake of the PET-CT contrast agent, the sensitivity for BAT was 100%. Using the PET-CT contrast agent, the sensitivity of the PET-CT scan for BAT in mice was thus improved by 25%."}}, "data": [{"smiles": "O=C[C@H]([18F])[C@@H](O)[C@H](O)[C@H](O)CO", "note": "[^18FDG, 2-[fluorine-18]fluoro-2-deoxy-D-glucose]", "values": [{"measurement": "positive predictive value PPV of the 18FDG PET-CT scan for metastases", "setting": "[1]", "value": 85, "unit": "%"}, {"measurement": "sensitivity of the 18FDG PET-CT scan for BAT", "setting": "[2]", "value": 75, "unit": "%"}]}]}
